Test results reported in patent publication US20260022143A1, “Cyclic Peptide Inhibitors of IL-23” (JANSSEN PHARMACEUTICA NV, priority 2022, published 2026).
Positions of bridges follow the written chain, without caps; N, C: chain ends. Non-standard residues stand in square brackets, D forms with d. Residues, ends and D or L forms follow the SMILES beside them. *: point of attachment. Me3N+(CH2)2O(CH2)2O(CH2)2CO = C[N+](C)(C)CCOCCOCCC(=O)*; Trp(7-Me) = Cc1cccc2c(C[C@H](N)C(=O)O)c[nH]c12; 2Nal = N[C@@H](Cc1ccc2ccccc2c1)C(=O)O; 3Pal = N[C@@H](Cc1cccnc1)C(=O)O; X14 = C[N+](C)(C)CCc1cn(CC*)nn1; Lys(Me) = CNCCCC[C@H](N)C(=O)O; Pen = CC(C)(S)[C@H](N)C(=O)O; X84 = CN(CCC[N+](C)(C)C)CC*; Thp = NC1(C(=O)O)CCOCC1; X92 = COCC[N+](C)(C)CC*; X91 = c1cc[n+](CC*)cc1; Sar = CNCC(=O)O

Experiment: Exposed Polar Surface Area (EPSA)
Type: physicochemical
Details: SFC on Chirex 3014 column; sample 1 mM DMSO stock; read-out: EPSA
Method in brief: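 SFC retention on a Chirex 3014 (S)-valine/(R)-1-(α-naphthyl)ethylamine column, 35 °C, CO2 with MeOH (20 mM ammonium formate) gradient 5–60% at 20%/min, 14 MPa outlet. Retention times converted to EPSA (Å^2) via linear calibration with 8 standards; samples from 1 mM DMSO stock, run in duplicate.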

COCC[N+](C)(C)CCOc1ccc(C[C@H](NC(=O)[C@H]2NC(=O)[C@H](CCCCN(C)C(C)=O)NC(=O)[C@H](Cc3c[nH]c4c(C)cccc34)NC(=O)[C@H]([C@@H](C)O)NC(=O)[C@H](CC(=O)N(C)C)NC(=O)[C@@H](NC(=O)CCOCCOCC[N+](C)(C)C)C(C)(C)SSC2(C)C)C(=O)N[C@@H](Cc2ccc3ccccc3c2)C(=O)NC2(C(=O)N[C@@H](CCCCN(C)C(C)=O)C(=O)N[C@@H](CC(N)=O)C(=O)N[C@@H](Cc3cccnc3)C(=O)N(C)CC(=O)N(C)C)CCOCC2)cc1 [compound 228, cPEG3aCO-Pen(3)-N(N(Me)2)-T-7MeW-K(NMeAc)-Pen(3)-mPEG2TMA2F-2Nal-THP-K(NMeAc)-N-3Pya-Sar-CON(Me)2] ({Me3N+(CH2)2O(CH2)2O(CH2)2CO}-[Pen]D(NMe2)T[Trp(7-Me)][Lys(Me)](Ac)[Pen]Y(X92)[2Nal][Thp][Lys(Me)](Ac)N[3Pal][Sar]-NMe2; disulfide 1-6)
EPSA: 139 A^2

CC(=O)N(C)CCCC[C@@H]1NC(=O)[C@H](Cc2c[nH]c3c(C)cccc23)NC(=O)[C@H]([C@@H](C)O)NC(=O)[C@H](CC(=O)N(C)C)NC(=O)[C@@H](NC(=O)CCOCCOCC[N+](C)(C)C)C(C)(C)SSC(C)(C)[C@@H](C(=O)N[C@@H](Cc2ccc(OCC[n+]3ccccc3)cc2)C(=O)N[C@@H](Cc2ccc3ccccc3c2)C(=O)NC2(C(=O)N[C@@H](CCCCN(C)C(C)=O)C(=O)N[C@@H](CC(N)=O)C(=O)N[C@@H](Cc3cccnc3)C(=O)N(C)CC(=O)N(C)C)CCOCC2)NC1=O [compound 231, cPEG3aCO-Pen(3)-N(N(Me)2)-T-7MeW-K(NMeac)-Pen(3)-NPyEF-2Nal-THP-K(NMeAc)-N-3Pya-Sar-CON(Me)2] ({Me3N+(CH2)2O(CH2)2O(CH2)2CO}-[Pen]D(NMe2)T[Trp(7-Me)][Lys(Me)](Ac)[Pen]Y(X91)[2Nal][Thp][Lys(Me)](Ac)N[3Pal][Sar]-NMe2; disulfide 1-6)
EPSA: 147 A^2

CC(=O)N(C)CCCC[C@@H]1NC(=O)[C@H](Cc2c[nH]c3c(C)cccc23)NC(=O)[C@H]([C@@H](C)O)NC(=O)[C@H](CC(=O)N(C)C)NC(=O)[C@@H](NC(=O)CCOCCOCC[N+](C)(C)C)C(C)(C)SSC(C)(C)[C@@H](C(=O)N[C@@H](Cc2ccc(OCCN(C)CCC[N+](C)(C)C)cc2)C(=O)N[C@@H](Cc2ccc3ccccc3c2)C(=O)NC2(C(=O)N[C@@H](CCCCN(C)C(C)=O)C(=O)N[C@@H](CC(N)=O)C(=O)N[C@@H](Cc3cccnc3)C(=O)N(C)CC(=O)N(C)C)CCOCC2)NC1=O [compound 234, cPEG3aCO-Pen(3)-N(N(Me)2)-T-7MeW-K(NMeAc)-Pen(3)-AEF(MePrpa)-2Nal-THP-K(NMeAc)-N-3Pya-Sar-CON(Me)2] ({Me3N+(CH2)2O(CH2)2O(CH2)2CO}-[Pen]D(NMe2)T[Trp(7-Me)][Lys(Me)](Ac)[Pen]Y(X84)[2Nal][Thp][Lys(Me)](Ac)N[3Pal][Sar]-NMe2; disulfide 1-6)
EPSA: 141 A^2

CC(=O)NCCCC[C@@H]1NC(=O)[C@H](Cc2c[nH]c3c(C)cccc23)NC(=O)[C@H]([C@@H](C)O)NC(=O)[C@H](CC(N)=O)NC(=O)[C@@H](NC(C)=O)C(C)(C)SSC(C)(C)[C@@H](C(=O)N[C@@H](Cc2ccc(OCCn3cc(CC[N+](C)(C)C)nn3)cc2)C(=O)N[C@@H](Cc2ccc3ccccc3c2)C(=O)NC2(C(=O)N[C@@H](CCCCNC(C)=O)C(=O)N[C@@H](CC(N)=O)C(=O)N[C@@H](Cc3cccnc3)C(=O)N(C)CC(N)=O)CCOCC2)NC1=O [compound 235] (Ac-[Pen]NT[Trp(7-Me)]K(Ac)[Pen]Y(X14)[2Nal][Thp]K(Ac)N[3Pal][Sar]-NH2; disulfide 1-6 (inferred))
EPSA: 149 A^2
